Assay results published in the Kinase Knowledgebase extract (Sharma et al. 2016).

Target: MAPK14 (human) (UniProt Q16539)
Assay: Inhibition of MAPK14 Kinase Activity

Chain of MAPK14 (human) (Q16539 whole entry, looked up): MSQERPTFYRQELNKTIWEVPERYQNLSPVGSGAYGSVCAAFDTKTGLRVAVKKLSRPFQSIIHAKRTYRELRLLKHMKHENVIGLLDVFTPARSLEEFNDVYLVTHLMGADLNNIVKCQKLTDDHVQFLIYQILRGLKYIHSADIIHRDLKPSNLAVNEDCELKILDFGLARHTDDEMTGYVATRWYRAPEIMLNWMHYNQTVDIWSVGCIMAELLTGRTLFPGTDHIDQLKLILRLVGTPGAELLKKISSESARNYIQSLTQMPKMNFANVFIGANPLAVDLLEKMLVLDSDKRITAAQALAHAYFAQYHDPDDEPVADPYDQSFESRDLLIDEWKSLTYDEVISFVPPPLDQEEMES

IC50, ≤ 1 µM:
CC(C)NC(=O)c1csc(-c2c(-c3ccc(F)cc3)n[nH]c2C2CCN(C(=O)c3cc(O)c(O)c(O)c3)CC2)n1, COc1ccc(C(=O)N2CCN(Cc3nc(-c4ccc(F)cc4)c(-c4nc(C(=O)NC(C)C)cs4)o3)CC2)c(O)c1, CC(C)NC(=O)c1csc(-c2c(-c3ccc(F)cc3)n[nH]c2C2CCN(C(=O)c3ccccc3)CC2)n1, Cc1onc(-c2ccc(F)cc2F)c1-c1ccn(C(=O)NC(C)C)n1, Cc1ccc(CNC(=O)c2csc(-c3sc(C)nc3-c3ccc(F)cc3)n2)cc1, C#CCNC(=O)c1csc(-c2c(-c3ccc(F)cc3)n[nH]c2C2CCN(C(=O)CO)CC2)n1, C#CCNC(=O)c1csc(-c2c(-c3ccc(F)cc3)ncn2C)n1, Cc1nc(-c2ccc(F)cc2)c(-c2nc(C(=O)NCc3cccs3)cs2)s1, Cc1nc(-c2ccc(F)cc2)c(-c2nc(C(=O)NCc3ccccc3C)cs2)s1, CC(C)NC(=O)c1csc(-c2oc(CN3CCN(C(=O)c4cscn4)CC3)nc2-c2ccc(F)cc2)n1, COc1ccc(C(=O)N2CCN(Cc3nc(-c4ccc(F)cc4)c(-c4nc(C(=O)NC(C)C)cs4)o3)CC2)cc1O, Cc1nc(-c2ccc(F)cc2)c(-c2nc(C(=O)Nc3ccc4c(c3)OCO4)cs2)s1, CC(C)NC(=O)c1csc(-c2oc(CNCCc3ccc(S(N)(=O)=O)cc3)nc2-c2ccc(F)cc2)n1, CC(C)NC(=O)c1csc(-c2oc(CN3CCN(C(=O)c4ccccc4C=O)CC3)nc2-c2ccc(F)cc2)n1, CC(C)NC(=O)c1csc(-c2oc(CNC(=O)c3ccncc3)nc2-c2ccc(F)cc2)n1, Cc1nc(-c2ccc(F)cc2)c(-c2nc(C(=O)NC(CO)C(C)C)cs2)s1 (stereo not drawn), CCN(CC)c1ccc(C(=O)N2CCN(Cc3nc(-c4ccc(F)cc4)c(-c4nc(C(=O)NC(C)C)cs4)o3)CC2)cc1, CC(C)NC(=O)c1csc(-c2c(-c3ccc(F)cc3)n[nH]c2C2CCN(C(=O)CCc3nc4ccccc4[nH]3)CC2)n1, COc1ccc(C(=O)N2CCN(Cc3nc(-c4ccc(F)cc4)c(-c4nc(C(=O)NC(C)C)cs4)o3)CC2)c(OC)c1, Cc1nc(-c2ccc(F)cc2)c(-c2nc(C(=O)NCc3cccc(C(F)(F)F)c3)cs2)s1, CC(C)NC(=O)c1csc(-c2oc(CNC(=O)c3ncc[nH]3)nc2-c2ccc(F)cc2)n1, Cc1onc(-c2ccc(F)c(Cl)c2)c1-c1ccn(C(=O)NC(C)C)n1, Cc1[nH]nc(-c2ccc(F)cc2)c1-c1nc(C(=O)NCC2CC2)cs1, CC(C)NC(=O)c1csc(-c2oc(CNC(=O)c3ccc4ncccc4c3)nc2-c2ccc(F)cc2)n1, CC(C)NC(=O)c1csc(-c2[nH]c(CN3CCNCC3)nc2-c2ccc(F)cc2)n1, CC(C)NC(=O)c1csc(-c2oc(CNC(=O)c3ccc([N+](=O)[O-])cc3Cl)nc2-c2ccc(F)cc2)n1, CC(C)NC(=O)c1csc(-c2oc(CN3CCN(C(=O)c4cnc[nH]4)CC3)nc2-c2ccc(F)cc2)n1, Cc1onc(-c2ccc(Cl)cc2)c1-c1cc(C)n(C(=O)NC(C)C)n1, CC(C)NC(=O)c1csc(-c2oc(CNC(=O)CCc3nc4ccccc4[nH]3)nc2-c2ccc(F)cc2)n1, Cc1nc(-c2ccc(F)cc2)c(-c2nc(C(=O)NCCc3cccc(F)c3)cs2)s1, Cc1[nH]nc(-c2ccc(F)cc2)c1-c1nc(C(=O)NCc2ccncc2)cs1, CC(C)NC(=O)c1csc(-c2oc(CN3CCN(C(=O)Cc4ccc(C(F)(F)F)cc4)CC3)nc2-c2ccc(F)cc2)n1, Cc1nc(-c2ccc(F)cc2)c(-c2nc(C(=O)Nc3ccc(C(F)(F)F)cc3C(F)(F)F)cs2)s1, CC(C)NC(=O)c1csc(-c2c(-c3ccc(F)cc3)noc2CNC(=O)Cc2cccc(O)c2)n1, Cc1nc(-c2ccc(F)cc2)c(-c2nc(C(=O)NCc3ccccn3)cs2)s1, Cc1nc(-c2ccc(F)cc2)c(-c2nc(C(=O)NCc3cccc(Cl)c3)cs2)s1, CC(C)NC(=O)c1csc(-c2oc(CNC(=O)C=Cc3ccccc3O)nc2-c2ccc(F)cc2)n1, CC(C)NC(=O)c1csc(-c2oc(CNC(=O)c3ccccc3C(=O)c3ccc(O)cc3)nc2-c2ccc(F)cc2)n1, Cc1ccccc1C(=O)N1CCC(c2[nH]nc(-c3ccc(F)cc3)c2-c2nc(C(=O)NC(C)C)cs2)CC1, CC(C)NC(=O)c1csc(-c2oc(CNC(=O)c3cc(O)ccc3[N+](=O)[O-])nc2-c2ccc(F)cc2)n1, COCC(C)NC(=O)c1csc(-c2sc(C)nc2-c2ccc(F)cc2)n1 (stereo not drawn), Cc1cc(C(=O)N2CCN(Cc3nc(-c4ccc(F)cc4)c(-c4nc(C(=O)NC(C)C)cs4)o3)CC2)n[nH]1, CC(C)NC(=O)c1csc(-c2c(-c3ccc(F)cc3)noc2CNC(=O)C(F)(F)F)n1, CC(C)NC(=O)n1ccc(-c2c(-c3ccc(F)cc3)noc2CN(C)C)n1, CC(C)NC(=O)c1csc(-c2oc(CN3CCN(C(=O)C(Cc4ccc(O)cc4)NC(=O)OC(C)(C)C)CC3)nc2-c2ccc(F)cc2)n1 (stereo not drawn), Cc1nc(-c2ccc(F)cc2)c(-c2nc(C(=O)NCCOc3ccccc3)cs2)s1, COc1ccccc1CNC(=O)c1csc(-c2sc(C)nc2-c2ccc(F)cc2)n1, Cc1nc(-c2ccc(F)cc2)c(-c2nc(C(=O)NCCN3CCCC3)cs2)s1, CC(C)NC(=O)c1csc(-c2oc(CNC(=O)C=Cc3ccc(Cl)cc3)nc2-c2ccc(F)cc2)n1, CC(C)NC(=O)c1csc(-c2oc(CNC(=O)c3c(F)cccc3Cl)nc2-c2ccc(F)cc2)n1, CCC(C)NC(=O)c1csc(-c2c(-c3ccc(F)cc3)n[nH]c2C2CCNCC2)n1 (stereo not drawn), Cc1nc(-c2ccc(F)cc2)c(-c2nc(C(=O)NC(C)C)cs2)o1, CC(C)NC(=O)c1csc(-c2oc(CNC(=O)c3cccnc3Cl)nc2-c2ccc(F)cc2)n1, O=C(NC1CCC1)c1csc(-c2c(-c3ccc(F)cc3)n[nH]c2C2CCNCC2)n1, CCOC(=O)CC(=O)NCc1nc(-c2ccc(F)cc2)c(-c2nc(C(=O)NC(C)C)cs2)o1, CC(C)NC(=O)c1csc(-c2c(-c3ccc(F)cc3)ncn2C2CCN(C(=O)CO)CC2)n1, CC(C)NC(=O)c1csc(-c2oc(CN3CCN(C(=O)c4ncc[nH]4)CC3)nc2-c2ccc(F)cc2)n1, Cc1nc(-c2ccc(F)cc2)c(-c2nc(C(=O)NC3CCCCC3)cs2)s1
